Reference: patent US20120024744A1, “Soil-related and/or Crop-related Applications for Chlorine Dioxide” (DHARMA IP, LLC, priority 2010, published 2012)

Assay: Enhanced solubility of beta-cyclodextrin in water containing ClO2
Format: physicochemical
Settings: 100 g slurries, 5% (w/w) in 8000 ppm ClO2 vs ultrapure water, 200 rpm, 3 days

Question: Which “weight of dried undissolved beta-cyclodextrin, ClO2 containing slurry less than control slurry” value does the source give for `OC[C@H]1O[C@@H]2O[C@H]3[C@H](O)[C@@H](O)[C@@H](O[C@H]4[C@H](O)[C@@H](O)[C@@H](O[C@H]5[C@H](O)[C@@H](O)[C@@H](O[C@H]6[C@H](O)[C@@H](O)[C@@H](O[C@H]7[C@H](O)[C@@H](O)[C@@H](O[C@H]8[C@H](O)[C@@H](O)[C@@H](O[C@H]1[C@H](O)[C@H]2O)O[C@@H]8CO)O[C@@H]7CO)O[C@@H]6CO)O[C@@H]5CO)O[C@@H]4CO)O[C@@H]3CO` [beta-cyclodextrin] here?
Answer: The value was 0.32 g.
